Results published in US12077503B2, “Substituted cyclic amides and their use as herbicides” (FMC CORPORATION, priority 2015, dated 2024).
Like-named read-outs stand apart in the source and are kept apart here.

How the values were obtained:
Experiment in all cases: Test A postemergence
Format in all cases: in vivo
[1] = tested on: Galium (catchweed bedstraw, Galium aparine); conditions: Galium, post-emergence, 240 h, postemergence; for pest or weed control at 125 g/ha: 125 g ai/ha; for pest or weed control at 500 g/ha: 500 g ai/ha, 0 to 100 scale, 0 is no effect, 100 is complete control
Summary of the method: (§1)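 In a loam soil and sand blend, planted seeds got a preemergence directed soil spray, and young plants at the one- to two-leaf stage, 2–10 cm high, got a postemergence application; ~10 d greenhouse hold; injury rated visually, 0 = none, 100 = complete control.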

[2] = tested on: blackgrass (Alopecurus myosuroides); conditions: Alopecurus myosuroides, post-emergence, 240 h, postemergence; for pest or weed control at 125 g/ha: 125 g ai/ha; for pest or weed control at 500 g/ha: 500 g ai/ha, 0 to 100 scale, 0 is no effect, 100 is complete control
Summary of the method: as §1

[3] = tested on: corn (Zea mays); conditions: Zea mays, post-emergence, 240 h, postemergence; for plant injury at 125 g/ha: 125 g ai/ha; for plant injury at 500 g/ha: 500 g ai/ha, 0 to 100 scale, 0 is no effect, 100 is complete control
Summary of the method: as §1

[4] = tested on: pigweed (Amaranthus retroflexus); conditions: Amaranthus retroflexus, post-emergence, 240 h, postemergence; for pest or weed control at 125 g/ha: 125 g ai/ha; for pest or weed control at 500 g/ha: 500 g ai/ha, 0 to 100 scale, 0 is no effect, 100 is complete control
Summary of the method: as §1

[5] = tested on: ragweed (common ragweed, Ambrosia elatior); conditions: Ambrosia artemisiifolia, post-emergence, 240 h, postemergence; for pest or weed control at 125 g/ha: 125 g ai/ha; for pest or weed control at 500 g/ha: 500 g ai/ha, 0 to 100 scale, 0 is no effect, 100 is complete control
Summary of the method: as §1

[6] = tested on: ryegrass, Italian (Italian ryegrass, Lolium multiflorum); conditions: Lolium multiflorum, post-emergence, 240 h, postemergence; for pest or weed control at 125 g/ha: 125 g ai/ha; for pest or weed control at 500 g/ha: 500 g ai/ha, 0 to 100 scale, 0 is no effect, 100 is complete control
Summary of the method: as §1

[7] = visual injury on 0 to 100 scale (0 no effect, 100 complete control), approx. 10 d, read-out: Galium plant response rating
[8] = read-out: Galium plant response rating
[9] = visual injury on 0 to 100 scale (0 no effect, 100 complete control), approx. 10 d, read-out: Blackgrass plant response rating
[10] = read-out: Blackgrass plant response rating
[11] = visual injury on 0 to 100 scale (0 no effect, 100 complete control), approx. 10 d, read-out: Corn plant response rating
[12] = read-out: Corn plant response rating
[13] = visual injury on 0 to 100 scale (0 no effect, 100 complete control), approx. 10 d, read-out: Pigweed plant response rating
[14] = read-out: Pigweed plant response rating
[15] = visual injury on 0 to 100 scale (0 no effect, 100 complete control), approx. 10 d, read-out: Ragweed plant response rating
[16] = read-out: Ragweed plant response rating
[17] = visual injury on 0 to 100 scale (0 no effect, 100 complete control), approx. 10 d, read-out: Ryegrass, Italian plant response rating
[18] = read-out: Ryegrass, Italian plant response rating
[19] = visual injury vs untreated controls after approx. 10 d, 0 = no effect, 100 = complete control, read-out: Galium plant response rating (0 to 100 scale)
[20] = visual injury vs untreated controls after approx. 10 d, 0 = no effect, 100 = complete control, read-out: Blackgrass plant response rating (0 to 100 scale)
[21] = visual injury vs untreated controls after approx. 10 d, 0 = no effect, 100 = complete control, read-out: Corn plant response rating (0 to 100 scale)
[22] = visual injury vs untreated controls after approx. 10 d, 0 = no effect, 100 = complete control, read-out: Pigweed plant response rating (0 to 100 scale)
[23] = visual injury vs untreated controls after approx. 10 d, 0 = no effect, 100 = complete control, read-out: Ragweed plant response rating (0 to 100 scale)
[24] = visual injury vs untreated controls after approx. 10 d, 0 = no effect, 100 = complete control, read-out: Ryegrass, Italian plant response rating (0 to 100 scale)

Structure (SMILES) | pest or weed control at 125 g/ha [1, 7] [%] | pest or weed control at 500 g/ha [1, 8] [%] | pest or weed control at 125 g/ha [2, 9] [%] | pest or weed control at 500 g/ha [2, 10] [%] | plant injury at 125 g/ha [3, 11] [%] | plant injury at 500 g/ha [3, 12] [%] | pest or weed control at 125 g/ha [4, 13] [%] | pest or weed control at 500 g/ha [4, 14] [%] | pest or weed control at 125 g/ha [5, 15] [%] | pest or weed control at 500 g/ha [5, 16] [%] | pest or weed control at 125 g/ha [6, 17] [%] | pest or weed control at 500 g/ha [6, 18] [%] | pest or weed control at 125 g/ha [1, 19] [%] | pest or weed control at 125 g/ha [2, 20] [%] | plant injury at 125 g/ha [3, 21] [%] | pest or weed control at 125 g/ha [4, 22] [%] | pest or weed control at 125 g/ha [5, 23] [%] | pest or weed control at 125 g/ha [6, 24] [%]
CN1C[C@H](c2csc(C(F)F)c2)[C@@H](C(=O)Nc2ccccc2F)C1=O [Compound 1123] | 40 | 50 | 30 | 80 | 20 | 80 | 0 | 20 | 30 | 50 | 30 | 50 |  |  |  |  |  | 
CC(C)Oc1ccc([C@H]2CNC(=O)[C@@H]2C(=O)Nc2ccccc2F)cc1 [Compound 1135] | 0 | 0 | 0 | 0 | 0 | 0 | 0 | 0 | 0 | 0 | 0 | 0 |  |  |  |  |  | 
CC(C)Oc1ccc([C@H]2CNC(=O)[C@@H]2C(=O)Nc2cccc(F)c2F)cc1 [Compound 1136] | 0 | 20 | 0 | 30 | 0 | 0 | 0 | 0 | 0 | 0 | 0 | 0 |  |  |  |  |  | 
CC(C)Oc1ccc([C@H]2CNC(=O)[C@@H]2C(=O)Nc2ccc(F)cc2F)cc1 [Compound 1137] | 0 | 0 | 0 | 0 | 0 | 0 | 0 | 0 | 0 | 0 | 0 | 0 |  |  |  |  |  | 
CCc1cc(CC)cc([C@H]2CNC(=O)[C@@H]2C(=O)Nc2ccccc2F)c1 [Compound 1138] | 20 | 50 | 30 | 60 | 50 | 80 | 0 | 0 | 0 | 0 | 0 | 50 |  |  |  |  |  | 
CCc1ccc([C@H]2CNC(=O)[C@@H]2C(=O)Nc2cccc(F)c2C)cc1 [Compound 1177] |  | 50 |  | 70 |  | 40 |  | 0 |  | 0 |  | 40 | 20 | 60 | 20 | 0 | 0 | 40
CCc1ccc([C@H]2CNC(=O)[C@@H]2C(=O)Nc2ccccc2SC)cc1 [Compound 1178] |  | 30 |  | 20 |  | 0 |  | 0 |  | 20 |  | 0 | 30 | 0 | 0 | 0 | 0 | 0
CSc1ccccc1NC(=O)[C@H]1C(=O)N(C)C[C@@H]1c1ccc(C(F)(F)F)nc1 [Compound 1198] |  | 50 |  | 60 |  | 20 |  | 70 |  | 30 |  | 30 | 40 | 20 | 0 | 40 | 0 | 0
CN1C[C@H](c2ccc(C#N)cc2)[C@@H](C(=O)Nc2ccccc2F)C1=O [Compound 1207] |  | 40 |  | 0 |  | 0 |  | 20 |  | 30 |  | 0 | 20 | 0 | 0 | 0 | 0 | 0
CN1C[C@H](c2ccc(C#N)cc2)[C@@H](C(=O)Nc2cccc(F)c2F)C1=O [Compound 1208] |  | 50 |  | 0 |  | 50 |  | 60 |  | 40 |  | 0 | 40 | 0 | 20 | 30 | 0 | 0
